Experimental data published in patent publication US20040023922A1, “Lipids for modulating immune response” (priority 2000, published 2004).
Where “and” joins values, the source holds several entries; their conditions need not be identical. Equal entries are not always repeated.

These compounds were tested on Female Balb/c mice (assay: Adjuvanticity of lipids: serum anti-KLH IgA, IgG, IgM ELISA (Example 7)). Details: serum day 7 after booster; 5 μl lipid + 45 μl saline + 50 μl KLH (2 mg/ml), week 0 and week 2; control KLH + Saline = 1.
Format: in vivo
Description: The objective of this study was to investigate the adjuvanticity of 19 different lipids.
Female Balb/c mice, 6-8 weeks and weighing about 20-22 gms were used and maintained on a normal mouse diet throughout the study.
There were 22 groups of mice marked alphabetically from A-V. Group A (8 mice) was the negative control (KLH+Saline), Group B (8 mice) was the positive control (KLH+IFA). Groups C-V were the experimental groups containing 6 mice each. 100 μl of antigen preparation comprising of 5 μl lipid+45 μl saline+50 μl (2 mg/ml KLH) was administered to 20 groups of 6 mice each, on week 0 followed by a boost on week 2.
On day 7 and day 21 after the booster dose, the mice were tail bled, the serum separated, aliquoted and stored at 4° C.
The specific anti-KLH IgG and IgM antibody content of each individual serum sample was determined in an established ELISA assay and standardised against a positive control antiserum obtained by hyperimmunisation of mice with KLH (100 μg) in Freund's incomplete adjuvant. Plates were coated with KLH at 2 μg/ml and incubated with four twofold dilutions of samples (100 μl) at 37° C. for 2 hours. The initial dilution of serum samples was 1:50 for IgA assay and 1:100 for IgG and IgM assays. […] IgA and IgM were used at 1:1000 and IgG at 1:2000 for 2 hours at 37° C. The results were expressed as antibody units calculated from the standard curve obtained from pooled immune mouse serum given an arbitrary antibody value of 100,000 IgA units/ml and 1×10^6 IgG and IgM units/ml. The standard curve was diluted from 1:100 to 1:3200 for IgA, 1:4000 to 1:256,000 for IgG and 1:1000 to 1:32000 for IgM samples. The value for each sample dilution falling on standard curve was calculated and the mean taken as the value for the sample.
Results are given in the form of histograms (FIGS. 9 to 14), plotting the Ig response (units/ml) against the trial grouping. […] The number signifies multiples of the control response.

| Structure (SMILES) | Day 7 Results IgA, score as multiples of the control response |
| --- | --- |
| CCCCCCCCCCCCCCCC(=O)OCC(COC(=O)CCCCCCCCCCCCC)OC(=O)CCCCCCCCCCCCCCC (racemic) [DPM, 1,2 Diplamitoyl-3-myristoyl-rac-glycerol] | 16 |
| CCCCCCCCCCCCCCCCCC(=O)OCC(COC(=O)CCCCCCCCCCCCC)OC(=O)CCCCCCCCCCCCCCCCC (racemic) [DSM, 1,2 Distearloyl-3-myristoyl-rac-glycerol] | 26 |
| CCCCCCCCCCCCCCCCCC(=O)OCC(COC(=O)CCCCCCCCCCCCCCC)OC(=O)CCCCCCCCCCCCCCCCC (racemic) [DSP, 1,2 Distearoyl-3-palmitoyl-rac-glycerol] | 15 |
| CCCCCCCCCCCCCC(=O)OCC(COP(=O)([O-])OCC[N+](C)(C)C)OC(=O)CCCCCCCCCCCCC (racemic) [PCM, DL-α-Phosphatidylcholine, dimyristoyl] | 4 |
| CCCCCCCCCCCCCCCCCC(=O)OCC(COP(=O)([O-])OCC[N+](C)(C)C)OC(=O)CCCCCCCCCCCCCCCCC (racemic) [PCS, DL-α-Phosphatidylcholine, distearoyl] | 22 |
| CCCCCCCCCCCCCCCC(=O)OCC(COP(=O)(O)OCCN)OC(=O)CCCCCCCCCCCCCCC (racemic) [PEP, DL-α-Phosphatidylethanolamine, dipalmitoyl] | 9 |
| CCCCCCCCCCCCCCCC(=O)OCC(COP(=O)(O)OC[C@H](N)C(=O)O)OC(=O)CCCCCCCCCCCCCCC (mixture of isomers) [PSP, DL-α-Phosphatidyl-L-serine, dipalmitoyl] | 47 |

Same assay, conditions: serum day 7 after booster; control KLH + Saline = 1

| Structure (SMILES) | Day 7 Results IgG, score as multiples of the control response | Day 7 Results IgM, score as multiples of the control response |
| --- | --- | --- |
| CCCCCCCCCCCCCCCC(=O)OCC(COC(=O)CCCCCCCCCCCCC)OC(=O)CCCCCCCCCCCCCCC (racemic) [DPM, 1,2 Diplamitoyl-3-myristoyl-rac-glycerol] | 3 | 1 |
| CCCCCCCCCCCCCCCCCC(=O)OCC(COC(=O)CCCCCCCCCCCCC)OC(=O)CCCCCCCCCCCCCCCCC (racemic) [DSM, 1,2 Distearloyl-3-myristoyl-rac-glycerol] | 4 | 4 |
| CCCCCCCCCCCCCCCCCC(=O)OCC(COC(=O)CCCCCCCCCCCCCCC)OC(=O)CCCCCCCCCCCCCCCCC (racemic) [DSP, 1,2 Distearoyl-3-palmitoyl-rac-glycerol] | 7 | 5 |
| CCCCCCCCCCCCCC(=O)OCC(COP(=O)([O-])OCC[N+](C)(C)C)OC(=O)CCCCCCCCCCCCC (racemic) [PCM, DL-α-Phosphatidylcholine, dimyristoyl] | 2 | 1 |
| CCCCCCCCCCCCCCCCCC(=O)OCC(COP(=O)([O-])OCC[N+](C)(C)C)OC(=O)CCCCCCCCCCCCCCCCC (racemic) [PCS, DL-α-Phosphatidylcholine, distearoyl] | 8 | 2 |
| CCCCCCCCCCCCCCCC(=O)OCC(COP(=O)(O)OCCN)OC(=O)CCCCCCCCCCCCCCC (racemic) [PEP, DL-α-Phosphatidylethanolamine, dipalmitoyl] | 8 | 2 |
| CCCCCCCCCCCCCCCC(=O)OCC(COP(=O)(O)OC[C@H](N)C(=O)O)OC(=O)CCCCCCCCCCCCCCC (mixture of isomers) [PSP, DL-α-Phosphatidyl-L-serine, dipalmitoyl] | 2 | 2 |

Same assay, conditions: serum day 21 after booster; control KLH + Saline = 1

| Structure (SMILES) | Day 21 Results IgA, score as multiples of the control response | Day 21 Results IgG, score as multiples of the control response | Day 21 Results IgM, score as multiples of the control response |
| --- | --- | --- | --- |
| CCCCCCCCCCCCCCCC(=O)OCC(COC(=O)CCCCCCCCCCCCC)OC(=O)CCCCCCCCCCCCCCC (racemic) [DPM, 1,2 Diplamitoyl-3-myristoyl-rac-glycerol] | 2 | 7 | 2 |
| CCCCCCCCCCCCCCCCCC(=O)OCC(COC(=O)CCCCCCCCCCCCC)OC(=O)CCCCCCCCCCCCCCCCC (racemic) [DSM, 1,2 Distearloyl-3-myristoyl-rac-glycerol] | 3 | 5 | 3 |
| CCCCCCCCCCCCCCCCCC(=O)OCC(COC(=O)CCCCCCCCCCCCCCC)OC(=O)CCCCCCCCCCCCCCCCC (racemic) [DSP, 1,2 Distearoyl-3-palmitoyl-rac-glycerol] | 3 | 8 | 2 |
| CCCCCCCCCCCCCC(=O)OCC(COP(=O)([O-])OCC[N+](C)(C)C)OC(=O)CCCCCCCCCCCCC (racemic) [PCM, DL-α-Phosphatidylcholine, dimyristoyl] | 1 | 3 | 1 |
| CCCCCCCCCCCCCCCCCC(=O)OCC(COP(=O)([O-])OCC[N+](C)(C)C)OC(=O)CCCCCCCCCCCCCCCCC (racemic) [PCS, DL-α-Phosphatidylcholine, distearoyl] | 2 | 13 | 2 |
| CCCCCCCCCCCCCCCC(=O)OCC(COP(=O)(O)OCCN)OC(=O)CCCCCCCCCCCCCCC (racemic) [PEP, DL-α-Phosphatidylethanolamine, dipalmitoyl] | 2 | 17 | 1 |
| CCCCCCCCCCCCCCCC(=O)OCC(COP(=O)(O)OC[C@H](N)C(=O)O)OC(=O)CCCCCCCCCCCCCCC (mixture of isomers) [PSP, DL-α-Phosphatidyl-L-serine, dipalmitoyl] | 3 | 14 | 2 |

Same assay, conditions: sum of the six IgA, IgG, IgM scores of day 7 and day 21; control KLH + Saline = 6

| Structure (SMILES) | Ranking Total |
| --- | --- |
| CCCCCCCCCCCCCCCC(=O)OCC(COC(=O)CCCCCCCCCCCCC)OC(=O)CCCCCCCCCCCCCCC (racemic) [DPM, 1,2 Diplamitoyl-3-myristoyl-rac-glycerol] | 31 |
| CCCCCCCCCCCCCCCCCC(=O)OCC(COC(=O)CCCCCCCCCCCCC)OC(=O)CCCCCCCCCCCCCCCCC (racemic) [DSM, 1,2 Distearloyl-3-myristoyl-rac-glycerol] | 45 |
| CCCCCCCCCCCCCCCCCC(=O)OCC(COC(=O)CCCCCCCCCCCCCCC)OC(=O)CCCCCCCCCCCCCCCCC (racemic) [DSP, 1,2 Distearoyl-3-palmitoyl-rac-glycerol] | 39 and 40 |
| CCCCCCCCCCCCCC(=O)OCC(COP(=O)([O-])OCC[N+](C)(C)C)OC(=O)CCCCCCCCCCCCC (racemic) [PCM, DL-α-Phosphatidylcholine, dimyristoyl] | 12 |
| CCCCCCCCCCCCCCCCCC(=O)OCC(COP(=O)([O-])OCC[N+](C)(C)C)OC(=O)CCCCCCCCCCCCCCCCC (racemic) [PCS, DL-α-Phosphatidylcholine, distearoyl] | 49 |
| CCCCCCCCCCCCCCCC(=O)OCC(COP(=O)(O)OCCN)OC(=O)CCCCCCCCCCCCCCC (racemic) [PEP, DL-α-Phosphatidylethanolamine, dipalmitoyl] | 40 and 39 |
| CCCCCCCCCCCCCCCC(=O)OCC(COP(=O)(O)OC[C@H](N)C(=O)O)OC(=O)CCCCCCCCCCCCCCC (mixture of isomers) [PSP, DL-α-Phosphatidyl-L-serine, dipalmitoyl] | 70 |
